ChEMBL document CHEMBL1201862, “PubChem BioAssay data set” (2004)
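Protocol summary: plate cells (96-well), add compound at 5 concentrations, incubate 48 h, interpolate endpoints linearly. GI50 marks 50% less growth.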 The source made the active and inactive calls. Rule as the data show it: active = GI50 up to about 1.1 µM and inactive = higher.

Key:
Assay in all cases: inhibition of tumour cell growth, NCI panel, 48 h
[1] = system: A498
[2] = system: ACHN
[3] = system: COLO 205
[4] = system: DU-145
[5] = system: HCT-15
[6] = system: HOP-62
[7] = system: HT-29
[8] = system: IGROV-1
[9] = system: KM12
[10] = system: M14
[11] = system: MCF7
[12] = system: MDA-MB-435
[13] = system: NCI/ADR-RES
[14] = system: OVCAR-8
[15] = system: RXF 393
[16] = system: SK-MEL-2
[17] = system: A549
[18] = system: NCI-H522
[19] = system: SN12C

| Structure (SMILES) | GI50 [1] | GI50 [2] | GI50 [3] | GI50 [4] | GI50 [5] [µM] | GI50 [6] | GI50 [7] | GI50 [8] | GI50 [9] | GI50 [10] | GI50 [11] | GI50 [12] | GI50 [13] | GI50 [14] | GI50 [15] | GI50 [16] | GI50 [17] | GI50 [18] | GI50 [19] |
| --- | --- | --- | --- | --- | --- | --- | --- | --- | --- | --- | --- | --- | --- | --- | --- | --- | --- | --- | --- |
| O=C(c1cc2ccccc2cc1O)N1CCCCC1 | 15.2 µM (inactive) | 38.2 µM (inactive) | 32.7 µM (inactive) | 64.1 µM (inactive) | 35.8 | 27.4 µM (inactive) | 25.6 µM (inactive) | 13.5 µM (inactive) | 33.6 µM (inactive) | 18.1 µM (inactive) | 26.4 µM (inactive) | 33.3 µM (inactive) | 23.8 µM (inactive) | 20.8 µM (inactive) | 51.1 µM (inactive) | 17.3 µM (inactive) | – | – | – |
| Clc1nc(Cl)c(Cc2ccccc2)c(Cl)n1 | – | 15.7 µM (inactive) | 6.46 µM (inactive) | 14.8 µM (inactive) | 4.55 | 6.17 µM (inactive) | 3.94 µM (inactive) | 5.97 µM (inactive) | 7.87 µM (inactive) | 2.82 µM (inactive) | 5.12 µM (inactive) | 4.32 µM (inactive) | 4.8 µM (inactive) | 4.34 µM (inactive) | 4.21 µM (inactive) | 7.45 µM (inactive) | 12.5 µM (inactive) | 1.19 µM (inactive) | 4.39 µM (inactive) |
| CC(=O)O[C@H]1CC[C@H]2[C@@H]3CCC4=CC(=O)C=C[C@]4(O)[C@H]3CC[C@]12C | 42.8 µM (inactive) | > 84.5 µM (inactive) | 22.4 µM (inactive) | > 50.4 µM (inactive) | 29.6 | > 100 µM (inactive) | – | 55.1 µM (inactive) | 14.9 µM (inactive) | 32.1 µM (inactive) | 26.7 µM (inactive) | 16.4 µM (inactive) | 12 µM (inactive) | 19.1 µM (inactive) | 20.6 µM (inactive) | 22.1 µM (inactive) | > 42 µM (inactive) | – | > 71.9 µM (inactive) |
| COc1ccccc1C(=O)OCC1CCCN2CCCCC12 (centres undefined) | > 100 µM (inactive) | > 100 µM (inactive) | 21.1 µM (inactive) | > 100 µM (inactive) | 36.6 | – | 16.6 µM (inactive) | – | 18.2 µM (inactive) | – | 42.4 µM (inactive) | 64.3 µM (inactive) | 37.3 µM (inactive) | 21 µM (inactive) | 22.2 µM (inactive) | 54.3 µM (inactive) | 25.8 µM (inactive) | – | 29.7 µM (inactive) |
| CCSC1=CC(=O)c2nc3ccccc3c3ccnc1c23 | – | 3.65 µM (inactive) | 8.15 µM (inactive) | 10.8 µM (inactive) | 2.31 | 18.4 µM (inactive) | 3.82 µM (inactive) | 2.72 µM (inactive) | 3.9 µM (inactive) | 2.38 µM (inactive) | 1.88 µM (inactive) | 1.77 µM (inactive) | 2.62 µM (inactive) | 2.57 µM (inactive) | 4.5 µM (inactive) | 1.91 µM (inactive) | 7.8 µM (inactive) | 1.45 µM (inactive) | 2.64 µM (inactive) |
| COc1ccc2c(c1)C1=NCCN(CCN(C)C)c3ccc([N+](=O)[O-])c(c31)N2 | 1.59 µM (inactive) | 0.191 µM (active) | – | 0.48 µM (active) | 0.395 | 1.21 µM (inactive) | 0.348 µM (active) | 0.708 µM (active) | 0.374 µM (active) | 0.489 µM (active) | 0.365 µM (active) | 0.627 µM (active) | 0.957 µM (active) | 0.526 µM (active) | 0.757 µM (active) | 1.45 µM (inactive) | 0.417 µM (active) | – | 0.568 µM (active) |
| COC(=O)[C@H](COC(=O)/C=C/c1ccc(OC(C)=O)c(OC(C)=O)c1)NC(=O)/C=C/c1ccc(OC(C)=O)c(OC(C)=O)c1 | 39.3 µM (inactive) | 18 µM (inactive) | 18.5 µM (inactive) | 14.1 µM (inactive) | 18.8 | 17.2 µM (inactive) | 22.3 µM (inactive) | 18.5 µM (inactive) | 16.2 µM (inactive) | 21.2 µM (inactive) | 38.4 µM (inactive) | 19.4 µM (inactive) | 33.7 µM (inactive) | 27.7 µM (inactive) | 28.5 µM (inactive) | 18.5 µM (inactive) | 30.7 µM (inactive) | – | 18.8 µM (inactive) |
